The text below walks through data of patent US20260297542A1, “HERBICIDE RESISTANT PLANTS” (SYNGENTA CROP PROTECTION AG, priority 2023, published 2026).

The target of assay [1] is T1, His-TEV-AtPPO1 ΔcTP V002 (SEQ ID NO: 373) (Arabidopsis thaliana, UniProt P55826, L479M/S305L/Y426V).
T1 construct: with cTPs removed; made in house; host or cells: E. coli BL21 (DE3), His GraviTrap, partially purified
T1 sequence (P55826 with tags, fused parts or gaps S305L/Y426V/L479M): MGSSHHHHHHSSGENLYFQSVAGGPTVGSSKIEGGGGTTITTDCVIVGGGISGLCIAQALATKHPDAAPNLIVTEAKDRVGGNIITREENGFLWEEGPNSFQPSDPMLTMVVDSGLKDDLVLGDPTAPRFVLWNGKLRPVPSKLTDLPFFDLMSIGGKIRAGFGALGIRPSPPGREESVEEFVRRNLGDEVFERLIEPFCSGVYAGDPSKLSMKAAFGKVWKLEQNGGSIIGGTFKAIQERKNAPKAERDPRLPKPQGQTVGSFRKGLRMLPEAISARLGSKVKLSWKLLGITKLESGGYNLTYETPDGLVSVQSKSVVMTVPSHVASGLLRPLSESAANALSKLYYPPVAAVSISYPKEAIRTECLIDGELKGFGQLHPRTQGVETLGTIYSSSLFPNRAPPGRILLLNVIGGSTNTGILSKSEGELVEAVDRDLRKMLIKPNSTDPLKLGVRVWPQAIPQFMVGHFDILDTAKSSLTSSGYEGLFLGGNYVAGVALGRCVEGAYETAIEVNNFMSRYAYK
The experiment in a line: activity rate of PPO variant in in vitro assay. The format is biochemical. The following applies: role: substrate; 1 uM protoporphyrinogen IX; no inhibitor. The source says:
(§1) A pET24 plasmid containing a DNA sequence encoding variants of AtPPO1 derived from Arabidopsis thaliana with cTPs removed and both a 6×His tag and TEV protease cleavage tag added at the N-terminus, codon-optimised for expression in E. coli, and under control of a T7 promoter, was synthesised by Twist Bioscience. The following variants were synthesised: WT AtPPO1 (SEQ ID NO: 370), AtPPO1 L479M (SEQ ID NO: 371), AtPPO1 L479N (SEQ ID NO: 372), AtPPO1 S305L Y426V (SEQ ID NO: 374) and AtPPO1 S305L Y426V L479M (SEQ ID NO: 373). This plasmid was expressed in E. coli BL21 (DE3) with 50 μg/mL kanamycin selection. 10 mL of overnight cultures grown at 37° C. were used to inoculate 1 L AIM (AIM-Terrific Broth Base including Trace elements, Formedium) in 2 L shake flasks. Cultures were grown at 37° C., 200 rpm for 3 hours and then overnight at 26° C. Cells were harvested centrifugation. 5-15 g of cell pellet was lysed in and resuspended in ratio of 1:1.5 in lysis buffer (20 mM Tris pH8, 500 mM sodium chloride, 10% glycerol, 1× complete Protease EDTA-free Inhibitor Tablet (Roche), 10 mM imidazole). The resuspension was sonicated at 75% using 10 cycles of 30 seconds, 40 seconds off. After sonication Triton X-100 was added to the lysates at a final concentration of 0.5%. The lysates were centrifuged at 20,000 rpm for 25 min at 4° C. Cleared lysates were loaded on His GraviTrap (Cytiva) columns, washed with 20 mL of lysis buffer and eluted in elution buffer (20 mM Tris pH8, 500 mM sodium chloride, 10% glycerol, 200 mM imidazole, 0.03% (v/v) Triton X-100). The eluate was desalted on a PD10 column and 2.5-3.2 mL was collected. Protein concentration was measured and calculated using the absorbance at 280 nm. Extracts were diluted 1 in 4 and 10 uL was analysed by SDS PAGE.
(§2) Partially purified Protoporphyrinogen Oxidase enzymes were assayed for activity using fluorescence adapted from the method of Shepherd & Dailey (Anal Biochem. 2005 344(1) 115-121). The assay was performed in black 384 well plates with a clear bottom and the total volume of the reaction mixture was 91 ul. The final assay mixture contained 100 mM K2HPO4 pH7.2, 1 mM Na2EDTA, 5 mM DTT, 20% glycerol (v/v), 0.05% Tween 20 (v/v), 1.1% DMSO (v/v), 1 uM protoporphyrinogen IX and 1.5 nM enzyme. Compounds were dissolved in DMSO at 1 mM and a 4-fold serial dilution carried out to give 8 rates. 1 ul was added to the assay mixture. This gave final compound concentrations of 11, 2.7, 0.69, 0.17, 0.04, 0.01, 0.002, 0.0007 uM. Enzyme and inhibitor were preincubated for 5 minutes prior to starting the reaction with the addition of the substrate. […] IC50s were calculated using GraphPad Prism 7.05 nonlinear regression (Table 6). Each compound was tested in duplicate.

Assay [2] addresses T2, His-TEV-AtPP01 ΔcTP V030 (SEQ ID NO: 374) (Arabidopsis thaliana, UniProt P55826, S305L/Y426V).
T2 construct: with cTPs removed; made in house; host or cells: E. coli BL21 (DE3), His GraviTrap, partially purified
T2 sequence (P55826 with tags, fused parts or gaps S305L/Y426V): T1 sequence (P55826 with tags, fused parts or gaps S305L/Y426V/L479M) with M464L
The experiment in a line: activity rate of PPO variant in in vitro assay. The format is biochemical. The following applies: role: substrate; 1 uM protoporphyrinogen IX; no inhibitor.
Text: as §1, §2

Changes are numbered by the printed parent chain.

With `C=Cc1c2[nH]c(c1C)Cc1[nH]c(c(CCC(=O)O)c1C)Cc1[nH]c(c(C)c1CCC(=O)O)Cc1[nH]c(c(C)c1C=C)C2` [protoporphyrinogen IX], the results for the Rate in assay [1] and in assay [2] were 7.6 rfu second^−1 pmole^−1 and 5.3 rfu second^−1 pmole^−1, respectively.
